Measured values published in US20230066011A1, “PYRROLOPYRIMIDINE DERIVATIVE, AND PHARMACEUTICAL COMPOSITION FOR PREVENTING OR TREATING PROTEIN KINASE-RELATED DISEASE COMPRISING SAME AS ACTIVE INGREDIENT” (VORONOI CO., LTD., priority 2019, published 2023).

Key:
[1] = molecular target: T1, TTK (Homo sapiens, UniProt P33981); assay: TTK enzyme inhibition, ADP-Glo kinase assay; assay type: biochemical; parameters: purchased SignalChem T20-10G; conditions: ATP 5 μM
T1 sequence (P33981 1-857): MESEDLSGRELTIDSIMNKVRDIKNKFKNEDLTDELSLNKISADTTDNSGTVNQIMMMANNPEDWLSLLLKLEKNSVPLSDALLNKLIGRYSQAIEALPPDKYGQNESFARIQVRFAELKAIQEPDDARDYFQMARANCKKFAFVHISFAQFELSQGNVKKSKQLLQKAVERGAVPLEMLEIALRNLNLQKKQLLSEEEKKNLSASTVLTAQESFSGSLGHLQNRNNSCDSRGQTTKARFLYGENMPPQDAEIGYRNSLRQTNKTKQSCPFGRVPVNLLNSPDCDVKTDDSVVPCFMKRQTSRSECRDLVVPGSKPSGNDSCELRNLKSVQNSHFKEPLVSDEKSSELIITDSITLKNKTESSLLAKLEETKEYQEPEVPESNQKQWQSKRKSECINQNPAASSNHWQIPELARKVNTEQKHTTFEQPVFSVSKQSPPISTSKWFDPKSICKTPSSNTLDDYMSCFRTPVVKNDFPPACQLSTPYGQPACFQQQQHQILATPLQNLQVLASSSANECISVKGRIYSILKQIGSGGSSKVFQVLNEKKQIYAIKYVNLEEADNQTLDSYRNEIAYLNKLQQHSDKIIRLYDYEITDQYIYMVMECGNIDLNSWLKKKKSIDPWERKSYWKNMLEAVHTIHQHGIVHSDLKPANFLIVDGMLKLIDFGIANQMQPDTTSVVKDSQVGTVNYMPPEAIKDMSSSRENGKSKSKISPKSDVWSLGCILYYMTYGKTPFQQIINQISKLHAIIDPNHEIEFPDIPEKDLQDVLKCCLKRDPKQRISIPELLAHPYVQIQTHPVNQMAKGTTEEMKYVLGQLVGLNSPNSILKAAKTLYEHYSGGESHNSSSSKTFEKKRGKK
Procedure, shortened: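 Purified human TTK (7.5 ng) was reacted with 5 μM ATP and 0.2 μg MBP substrate for 4 h at 25 °C in 40 mM Tris-HCl pH 7.4, 20 mM MgCl2, 0.1 mg/mL BSA, 50 μM DTT. ADP formation was read by ADP-Glo luminescence, and IC50 was taken relative to solvent control.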

[2] = system: IL-6; assay: Inhibition of LPS-induced IL-6 secretion of THP-1 monocytes (ELISA); assay type: cell-based, human; conditions: Homo sapiens, THP-1; compound 0.5 μM, LPS 500 ng/mL, 24 hours; read-out: THP1/IL6 (% inhib)
Procedure, shortened: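 THP-1 monocytes grown 16 h at 37 °C, pretreated 1 h with compound at final 0.5 μM, then stimulated with LPS at final 500 ng/mL for 24 h. IL-6 and TNF-α in culture supernatant measured by ELISA (OD 450 nm).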

[3] = system: MDA-MB-468 cell line; assay: Inhibition of proliferation of MDA-MB-468 cancer cells (Cell Titer-Glo); assay type: cell-based; conditions: Homo sapiens, MDA-MB-468, 72 hours
Procedure, shortened: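 Cells were grown in DMEM or RPMI, seeded at 2,000 cells/well and exposed to 11 threefold dilutions of compound (final 10 to 0.000169 μM) for 72 hours. Viability was read by Cell Titer-Glo luminescence after 10 min at room temperature, and GI50 was calculated from the luminescence data.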

| IC50 [1] | GI50 [3] | Compound | inhibition at 0.5 µM [2] |
| --- | --- | --- | --- |
| < 100 nM | – | CNc1nc(Nc2ccc(S(=O)(=O)N3CCC(N4CCOCC4)CC3)cc2OC)nc2[nH]cc(C(F)(F)F)c12 [Example 157, N^2-(2-methoxy-4-((4-morpholinopiperidin-1-yl)sulfonyl)phenyl)-N^4-methyl-5-(trifluoromethyl)-7H-pyrrolo[2,3-d]pyrimidine-2,4-diamine 2,2,2-trifluoroacetate] | 1.6% |
| < 100 nM | 301 to 1000 nM | CNc1nc(Nc2ccc(C(=O)N3CCC(N4CCOCC4)CC3)c3c2OCC3)nc2[nH]cc(C(F)(F)F)c12 [Example 217, (7-((4-(methylamino)-5-(trifluoromethyl)-7H-pyrrolo[2,3-d]pyrimidin-2-yl)amino)-2,3-dihydrobenzofuran-4-yl)(4-morpholinopiperidin-1-yl)methanone] | 23.4% |
| < 100 nM | 301 to 1000 nM | CNc1nc(Nc2ccc(S(=O)(=O)N3CCC(N4CCOCC4)CC3)c3c2OCCO3)nc2[nH]cc(C(F)(F)F)c12 [Example 219, N^4-methyl-N^2-(8-((4-morpholinopiperidin-1-yl)sulfonyl)-2,3-dihydrobenzo[b][1,4]dioxin-5-yl)-5-(trifluoromethyl)-7H-pyrrolo[2,3-d]pyrimidine-2,4-diamine] | 10.9% |
| < 100 nM | 301 to 1000 nM | COCCNc1nc(Nc2ccc(C(=O)N3CCC(N4CCOCC4)CC3)c3c2OCC3)nc2[nH]cc(C#N)c12 [Example 359, 4-((2-methoxy-ethyl)ami-no)-2-((4-(4-morpholino-piperidine-1-carbonyl)-2,3-dihydro-benzofuran-7-yl)amino)-7H-pyrrolo[2,3-d]pyrimidine-5-carbonitrile] | 32% |
| < 100 nM | < 50 nM | C=CCNc1nc(Nc2ccc(S(=O)(=O)N3CCC(N4CCOCC4)CC3)cc2OC)nc2[nH]cc(C#N)c12 [Example 361, 4-(allylamino)-2-((2-methoxy-4-((4-morpholino-piperidin-1-yl)sulfonyl)phenyl)amino)-7H-pyrrolo[2,3-d]pyrimidine-5-carbonitrile] | 21.7% |
| – | 301 to 1000 nM | CCNc1nc(Nc2ccc(C(=O)N3CCN(C4COC4)CC3)c3c2OCCO3)nc2[nH]cc(C(F)(F)F)c12 [Example 400, (8-((4-(ethylamino)-5-(trifluoromethyl)-7H-pyrrolo[2,3-d]pyrimidin-2-yl)amino)-2,3-dihydrobenzo[b] [1,4]dioxin-5-yl) (4-(oxetan-3-yl)piperazin-1-yl)methanone] | 24.7% |
| – | 301 to 1000 nM | O=C(c1ccc(Nc2nc(NC3CCC3)c3c(C(F)(F)F)c[nH]c3n2)c2c1OCCO2)N1CCN(C2COC2)CC1 [Example 407, (8-((4-(cyclo-butylamino)-5-(trifluoromethyl)-7H-pyrrolo[2,3-d]pyrimidin-2-yl)amino)-2,3-dihydrobenzo[b] [1,4]dioxin-5-yl) (4-(oxetan-3-yl)piperazin-1-yl)methanone] | 20.2% |
| < 100 nM | – | COc1cc(P2(=O)CCN(C3CCOCC3)CC2)ccc1Nc1nc(NC2CC2)c2c(C(F)(F)F)c[nH]c2n1 [Example 435, 4-(4-((4-(cyclo-propylamino)-5-(trifluoromethyl)-7H-pyrrolo[2,3-d]pyrimidin-2-yl)amino)-3-methoxyphenyl)-1-(tetrahydro-2H-pyran-4-yl)-1,4-azaphosphinane 4-oxide] | 22.2% |
| – | 301 to 1000 nM | COCCNc1nc(Nc2ccc(P3(=O)CCN(C4CCOCC4)CC3)cc2OC)nc2[nH]cc(C(F)(F)F)c12 [Example 444, 4-(3-methoxy-4-((4-((2-methoxyethyl)amino)-5-(trifluoromethyl)-7H-pyrrolo[2,3-d]pyrimidin-2-yl)amino)phenyl)-1-(tetrahydro-2H-pyran-4-yl)-1,4-azaphosphinane 4-oxide] | 20% |
